Measurements as given in PubChem BioAssay AID1963965 (Molecular Pharmacology Branch, DTP, NCI, 2024).

Tested on: 996289-038-R-J1-PDC spheroid viability
Test: Anticancer human tumor 996289-038-R-J1-PDC patient-derived colon adenocarcinoma cell line growth inhibition [PI3K]
Settings: spheroids with HUVEC and MSC; for IC50: curve of first compound; for viability, T/C: stronger effect = lower value
From the text: Combinatorial screen of targeted agents with the PI3K inhibitors inavolisib, alpelisib, duvelisib, and copanlisib in multi-cell type tumor spheroids
A high-throughput screen of multi-cell type tumor spheroids was designed to identify active combinations of targeted small molecules and PI3K pathway inhibitors. Complex spheroids include a stromal component modeled by human endothelial cells (HUVEC) and fibroblasts modeled by human mesenchymal stem cells (MSCs). The concentration ranges selected for each drug and investigational agent were based upon clinically achievable concentrations if the clinical Cmax of the agent was known.
Compounds. The drugs and investigational agents: inavolisib (NSC800729), alpelisib (NSC765974), duvelisib (NSC772469), copanlisib (NSC816437), ipatasertib (NSC767898), afuresertib (NSC778305), talazoparib (NSC767125), sapanisertib (NSC764658), selumetinib (NSC741078), tovorafenib (DAY101, NSC766906), vemurafenib (NSC761431), ravoxertinib (NSC781343), sotorasib (NSC818433), MRTX1133 (NSC 836407), abemaciclib (NSC 768073), palbociclib (NSC758247), venetoclax (NSC 766270), SY5609 (NSC837396), enzalutamide (NSC755605), and darolutamide (NSC825331), were obtained from the National Cancer Institute (NCI) Developmental Therapeutics Program Chemical Repository. The FDA-approved anticancer drug set is available from the NCI Developmental Therapeutics Program. […] The stock solutions were prepared in dimethyl sulfoxide (DMSO, Sigma-Aldrich, St. Louis, MO, cat. D2650) at 800-fold the tested concentration and stored at -70 degrees C prior to their use. All drugs and investigational agents were tested over a range starting from a high concentration at or near the clinical Cmax and decreasing in half-log increments. If the clinical Cmax for an agent had not been determined, the highest concentration tested was 10 microM.
Cell Culture. All cells were maintained in an incubator at 37 degrees C and 5% CO2 with 95% humidity. The PDC lines were cultured according to standard operating procedures established by the NCI PDMR (https://pdmr.cancer.gov/sops/default.htm). All PDCs were thawed and cultured in Matrigel-coated flasks prepared with a working solution of 1X Ham's F-12 nutrient mix, without supplementation (Invitrogen, Waltham, MA, cat. 11765054), 100 U/mL penicillin-streptomycin (Invitrogen, cat. 15140122), and 2.5% Matrigel (Corning Inc., Corning, NY, cat. 354248) for the first three passages. The 354836-022-R-J1-PDC, 475296-252-R-J1-PDC, and 997726-040-R-J2-PDC lines were cultured in 6A media, which includes advanced DMEM/F-12 (Thermo Fisher Scientific, cat. 12634028), 10 mM HEPES (Thermo Fisher Scientific, cat. 15630080), 1X GlutaMAX supplement (Thermo Fisher Scientific, cat. 35050061), 0.1 mg/mL primocin (InvivoGen, San Diego, CA, cat. ant-pm-2), 10% defined fetal bovine serum, heat inactivated (HyClone Laboratories Inc., Logan, UT, cat. SH30070.03HI), 50% L-WRN conditioned media (ATCC, cat. CRL-3276), 1.25 mM N-Acetyl-L-cysteine (Sigma-Aldrich, cat. A9165), 10 mM nicotinamide (Sigma-Aldrich, cat. N0636), 1X B-27 supplement (Thermo Fisher Scientific, cat. 17504044), 1X N-2 supplement (Thermo Fisher Scientific, cat. 17502048), and 10 microM Y-27632 dihydrochloride (Tocris Bioscience, Bristol, United Kingdom, cat. 1254). The 624824-186-R-J2-PDC line was cultured in 6C/Colon 1B media, which includes all 6A media components plus 50 ng/mL human EGF recombinant protein (Thermo Fisher Scientific, cat. PHG0311). […]

[1] = second compound 0.00316 µM, first compound 0.0316 µM
[2] = second compound 0.00316 µM, first compound 0.1 µM
[3] = second compound 0.00316 µM, first compound 0.316 µM
[4] = second compound 0.00316 µM, first compound 1 µM
[5] = second compound 0.00316 µM, first compound 3.16 µM
[6] = second compound 0.00316 µM, first compound 10 µM
[7] = second compound 0.01 µM, first compound 0.0316 µM
[8] = second compound 0.01 µM, first compound 0.1 µM
[9] = second compound 0.01 µM, first compound 0.316 µM
[10] = second compound 0.01 µM, first compound 1 µM
[11] = second compound 0.01 µM, first compound 3.16 µM
[12] = second compound 0.01 µM, first compound 10 µM
[13] = second compound 0.0316 µM, first compound 0.0316 µM
[14] = second compound 0.0316 µM, first compound 0.1 µM
[15] = second compound 0.0316 µM, first compound 0.316 µM
[16] = second compound 0.0316 µM, first compound 1 µM
[17] = second compound 0.0316 µM, first compound 3.16 µM
[18] = second compound 0.0316 µM, first compound 10 µM
[19] = second compound 0.1 µM, first compound 0.0316 µM
[20] = second compound 0.1 µM, first compound 0.1 µM
[21] = second compound 0.1 µM, first compound 0.316 µM
[22] = second compound 0.1 µM, first compound 1 µM
[23] = second compound 0.1 µM, first compound 3.16 µM
[24] = second compound 0.1 µM, first compound 10 µM
[25] = second compound 0.316 µM, first compound 0.0316 µM
[26] = second compound 0.316 µM, first compound 0.1 µM
[27] = second compound 0.316 µM, first compound 0.316 µM
[28] = second compound 0.316 µM, first compound 1 µM
[29] = second compound 0.316 µM, first compound 3.16 µM
[30] = second compound 0.316 µM, first compound 10 µM
[31] = second compound 1 µM, first compound 0.0316 µM
[32] = second compound 1 µM, first compound 0.1 µM
[33] = second compound 1 µM, first compound 0.316 µM
[34] = second compound 1 µM, first compound 1 µM
[35] = second compound 1 µM, first compound 3.16 µM
[36] = second compound 1 µM, first compound 10 µM
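Note: spheroids exposed to compounds for seven days before viability read.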
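Throughout, for viability, T/C: luminescence used as a proxy for viable cell amount; percent viability relative to DMSO vehicle control as 100%.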

Structure (SMILES): CC1(C)CCC(CN2CCN(c3ccc(C(=O)NS(=O)(=O)c4ccc(NCC5CCOCC5)c([N+](=O)[O-])c4)c(Oc4cnc5[nH]ccc5c4)c3)CC2)=C(c2ccc(Cl)cc2)C1 + CC(Nc1ccc2c(c1)OCCn1cc(N3C(=O)OCC3C(F)F)nc1-2)C(N)=O
- IC50 (second compound 0.00316 µM): 8.46 µM
- IC50 (second compound 0.01 µM): 8.25 µM
- IC50 (second compound 0.0316 µM): 6.53 µM
- IC50 (second compound 0.1 µM): 6.52 µM
- IC50 (second compound 0.316 µM): 4.81 µM
- IC50 (second compound 1 µM): 4.21 µM
- viability, T/C [1]: 83.7%
- viability, T/C [2]: 77.4%
- viability, T/C [3]: 95.8%
- viability, T/C [4]: 112%
- viability, T/C [5]: 93.5%
- viability, T/C [6]: 42.7%
- viability, T/C [7]: 92.3%
- viability, T/C [8]: 86.7%
- viability, T/C [9]: 87.4%
- viability, T/C [10]: 111%
- viability, T/C [11]: 94.5%
- viability, T/C [12]: 41%
- viability, T/C [13]: 95.2%
- viability, T/C [14]: 88.2%
- viability, T/C [15]: 94.7%
- viability, T/C [16]: 84.2%
- viability, T/C [17]: 90%
- viability, T/C [18]: 26.5%
- viability, T/C [19]: 80.3%
- viability, T/C [20]: 81.4%
- viability, T/C [21]: 79.1%
- viability, T/C [22]: 96.7%
- viability, T/C [23]: 86.3%
- viability, T/C [24]: 29.4%
- viability, T/C [25]: 70.3%
- viability, T/C [26]: 62.3%
- viability, T/C [27]: 61.7%
- viability, T/C [28]: 61.2%
- viability, T/C [29]: 74.6%
- viability, T/C [30]: 22%
- viability, T/C [31]: 55.5%
- viability, T/C [32]: 50.7%
- viability, T/C [33]: 59.3%
- viability, T/C [34]: 59.8%
- viability, T/C [35]: 73.3%
- viability, T/C [36]: 25.9%

Structure (SMILES): C[C@@H](NC(=O)c1ncnc(N)c1Cl)c1ncc(C(=O)Nc2cc(C(F)(F)F)c(Cl)cn2)s1 + CC(Nc1ccc2c(c1)OCCn1cc(N3C(=O)OCC3C(F)F)nc1-2)C(N)=O
- IC50 (second compound 0.00316 µM): > 10 µM
- IC50 (second compound 0.01 µM): > 10 µM
- IC50 (second compound 0.0316 µM): > 10 µM
- IC50 (second compound 0.1 µM): > 10 µM
- IC50 (second compound 0.316 µM): > 10 µM
- IC50 (second compound 1 µM): > 10 µM
- viability, T/C [1]: 115%
- viability, T/C [2]: 124%
- viability, T/C [3]: 129%
- viability, T/C [4]: 123%
- viability, T/C [5]: 135%
- viability, T/C [6]: 122%
- viability, T/C [7]: 119%
- viability, T/C [8]: 124%
- viability, T/C [9]: 107%
- viability, T/C [10]: 139%
- viability, T/C [11]: 140%
- viability, T/C [12]: 122%
- viability, T/C [13]: 116%
- viability, T/C [14]: 103%
- viability, T/C [15]: 111%
- viability, T/C [16]: 120%
- viability, T/C [17]: 128%
- viability, T/C [18]: 111%
- viability, T/C [19]: 93.7%
- viability, T/C [20]: 93.1%
- viability, T/C [21]: 91.7%
- viability, T/C [22]: 119%
- viability, T/C [23]: 107%
- viability, T/C [24]: 110%
- viability, T/C [25]: 70%
- viability, T/C [26]: 87.6%
- viability, T/C [27]: 87.2%
- viability, T/C [28]: 105%
- viability, T/C [29]: 109%
- viability, T/C [30]: 83.3%
- viability, T/C [31]: 68%
- viability, T/C [32]: 78.1%
- viability, T/C [33]: 57.8%
- viability, T/C [34]: 81.9%
- viability, T/C [35]: 85.6%
- viability, T/C [36]: 65.3%
